From patent US9358226B2, “Triarylmethane analogs and their use in treating cancers” (Emory University, priority 2007, dated 2016)
Read-outs that look alike come from different tables or passages of the source.

Assays:
HIF2a = HIF2a expression model (quantitative RT-PCR); type: cell-based; settings: WM35 PKB cells, 5 micromolar, 24 hours
Protocol: In this expression model, WM35 PKB cells are exposed to 5 micromolar of test compounds for 24 hours. At the end of this period, cells are harvested for RNA, which is then reverse transcribed into cDNA, and levels of HIF2a message are quantified using quantitative RT-PCR and corrected for a housekeeping RNA message.

T. brucei = assay: Parasitemia in mice injected with T. brucei; type: in vivo
Protocol: In one study, the parasite was T. brucei. Mice were injected with parasites (5,000 parasites/mouse), and injected (s.c) with imipramine blue (1 mg/mice/day) starting from the day the mice were injected with parasites. The parasitemia level in blood was counted on each following day.
The experiment was repeated with IV administration of imipramine blue (100 μg of imipramine blue). […] Accordingly, it is important to find a therapeutic window (where treatment of parasitemia can be effected, without unwanted toxic effects). This therapeutic window is in the range of between about 150 and 250 μg.

[1] = tested on: bloodstream form of T. brucei; assay: Bloodstream form of T. brucei, live cells, overnight treatment; type: cell-based; settings: at 500 nm
Protocol: These and other compounds were tested on live cells.
The experiment was conducted with one million cells of the bloodstream form of T. brucei. After over night treatment with different compounds (at concentrations of 50 and 100 μmolar), cells were counted and plotted with controls.

[2] = tested on: P. falciparum D6 (Chloroquine Sensitive); assay: Malaria model, chloroquine sensitive P. falciparum; type: cell-based
Protocol: (§1) The compounds were tested in a malaria model using both chloroquine sensitive and multidrug resistant P. falciparum. The malaria model was the same as published in JAC Advance Access published online on Jul. 30, 2008, Journal of Antimicrobial Chemotherapy, doi:10.1093/jac/dkn315, the contents of which are hereby incorporated by reference, and the data is summarized in the table below.
(§2) Briefly, the assay involves exposing both chloroquine sensitive and multidrug resistant P. falciparum to the compounds. After one hour of exposure to the highest concentration of the compound, followed by removal of the compound, the growth of all stages of P. falciparum was observed. The reduction in the growth stages was then compared with untreated control parasites. […] The presence of strong inhibition (defined herein as 10% growth) of all parasite stages was evaluated when the parasites were exposed to various concentrations of various compounds.

[3] = tested on: P. falciparum Dd2 (Multidrug Resistant); assay: Malaria model, multidrug resistant P. falciparum; type: cell-based
Protocol: as §1, §2

[4] = tested on: myeloma cells (MM.1S, MM.1R, RPMI8226, and U266); assay: MTT cell viability assay, myeloma cells; type: cell-based
Protocol: (§3) Imipramine blue was obtained from the department of dermatology, Emory University. MTT assays for myeloma cells (MM.1S, MM.1R, RPMI8226, and U266) were used to evaluate the cell viability. AnnexinV staining and cell cycle analysis was done by flow cytometry to assess the level of apoptosis and analyze cell cycle arrest. Western blotting was performed using antibodies to analyze the impact of imipramine blue on various targets. Bone marrow from myeloma patients were obtained with consent from the Winship Cancer Institute.

myeloma cells [5] = assay: AnnexinV staining and cell cycle analysis by flow cytometry; type: cell-based
Protocol: as §3

myeloma cells [6] = assay: Western blotting of myeloma cells; type: cell-based
Protocol: as §3

[7] = tested on: leukemia and lymphoma cell lines; assay: Cell growth inhibition in leukemia and lymphoma cell lines; type: cell-based
[8] = tested on: CD38 positive population of primary cells from myeloma patients; assay: Primary cells from myeloma patients, cell killing; type: cell-based, human; settings: alone as a single agent or in combination with bortezomib
Protocol: as §3

[9] = ESR spectrum with superoxide dismutase; settings: room temperature ESR, conditions as in Li et al.
Protocol: Li used ESR to confirm the production of NADPH-dependent.O2—by isolated endosomes (Li et al., Molecular and Cellular Biology, January 2006, p. 140-154, 26(1):140-154 (2006)). ESR assays were conducted at room temperature using a Bruker model EMX ESR spectrometer (Bruker). Vesicular fractions from each sample were mixed with the spin trap, 50 mM 5,5-dimethyl-1-pyrroline N-oxide (DMPO), in a total volume of 500 μl of PBS, pH 7.4. This solution contained iminodiacetic acid-chelating resin (10 ml/liter; Sigma-Aldrich). The reaction was initiated by adding NADPH to 100 μM and was immediately placed into the ESR spectrometer. DMPO-hydroxyl radical adduct formation was assayed for 10 min. Instrument settings were as follows: receiver gain, 1×10^6; modulation frequency, 100 kHz; microwave power, 40.14 mW; modulation amplitude, 1.0 G; and sweep rate, 1 G/s.

Leishmania amazonensis = assay: Leishmaniasis model, in vitro promastigotes, parasites/mL; type: cell-based; settings: for activity in first experiment: 1 and 0.1 mcM (ethanol 0.1 and 0.01%)
Protocol: The experiments were started using water as a solvent for the triarylmethanes (TPM, standing for triphenylmethane). However, water was not an effective solvent, so ethanol was substituted. Ethanol is toxic to leishmania, so a control group was tested with a higher ethanol concentration than that present on the TPM groups.
Each of FIGS. 4-7 has five or six groups with 50, 10, 1 and 0.1 mcM (micromolar) of TPMs (1, 2, 3 and 5) in ethanol, and two control groups: Ethanol 5% (50 mcM) and positive control.
The number of parasites was counted only after 48 hours. Again, an ethanol control at 0.1% was used.
The IC50 was calculated by the method described by Hills et al. (18) and Huber and Koella (19). Briefly, Hills proposed finding two concentrations, X1 and X2, such that the parasite density, Y1, at concentration X1 (and all lower concentrations) was more than half of the density found in the control, Y0, and that the parasite density, Y2, at concentration X2 (and all higher concentrations) was less than half of Y0. The IC50 was then found by linear extrapolation between X1 and X2: log(IC50)=log(X1)|[(Y1−Y0/2)/(Y1−Y2)][ log(X2)−log(X1)].
Compounds TPM 6 (MW=400.60), TPM 7 (MW=672.86), TPM 9 (MW=521.76) and TPM 10 (MW=662.95) were evaluated with the same methodology. They were tested using a maximum of 1% of ethanol in each treatment group. The ethanol control was also evaluated with the same concentration (1%).
The treatment groups were TPM 6 at a dosage of 0.05; 0.01; 0.005 and 0.001 mcM.

ang-2 mRNA = assay: Quantitative reverse transcription-PCR for ang-2 in bEnd.3 cells; type: cell-based, murine; settings: 10 μM, 6.5 hours
Protocol: bEnd.3 cells were seeded equally into six T-75 flasks and 24 hours later were treated with 0, 1, 5, 10, 15, and 20 μM concentrations of gentian violet (Sigma-Aldrich, no. G2039) in ethanol for 6.5 hours. RNA was extracted and purified using TRI reagent (Sigma-Aldrich, T9424) and measured using spectrophotometer (Perkin-Elmer UV/VIS, Wellesley, Mass.). RNA (1 μg) was used for DNase Amplification (Invitrogen, no. 18068-015, Carlsbad, Calif.) followed by first-strand synthesis for reverse transcription-PCR (Invitrogen SuperScript, no. 12371-019). 96-well Optical Reaction Plate (ABI PRISM, no. 128, Applied Biosystems, Foster City, Calif.) was used for the reverse transcription-PCR reaction. A measure of 2.5 μl of template, which had been diluted 1:10 in crosslinked water, was used in each well and the experiment was performed in triplicate. Ang pt2 (Applied Biosystems, Taqman Gene Expression Assay, Mm00545822_ml) and 18S (Applied Biosystems Taqman Gene Expression Assay, Hs99999901_sl) primers were used along with crosslinked molecular grade water (Cellgro, Mediatech, Inc., Herndon, Va.) and master mix (Applied Biosystems TaqMan Fast Universal PCR Master Mix (2^x)). The reaction was run on the 7900 Applied Biosystems Reader for Absolute Quantification for 96-well plates. C values were analyzed by ΔΔCt method, and the standard error of the mean was calculated (FIG. 3b). The same protocol was used for treatment with brilliant green (Sigma, no. B6756), except that the concentrations used were 0, 0.1, 0.25, 0.5, and 0.75 μM (FIG. 3a).

[10] = 48 hours, linear extrapolation method of Hills
[11] = summary table of experiments 1-4

CCN(CC)c1ccc(C(c2ccc(N(CC)CC)cc2)=c2ccc3c(c2)CCc2ccccc2[N+]=3CCCN(C)C)cc1 [TPM 2]
inhibition of HIF2a expression (HIF2a): around 90%
lethality to mice (T. brucei; 1 mg IV): killed the mice
decrease in parasitemia (T. brucei; IV, 100 μg, mouse model): 70%
cell toxicity to trypanosome toxicity [1]: favorable
IC50 ([2]; Plasmodium falciparum, D6; read-out: IC50 (nM) vs P. falciparum D6 (Chloroquine Sensitive)): ~2500 nM
IC50 ([3]; Plasmodium falciparum, DD2; read-out: IC50 (nM) vs P. falciparum Dd2 (Multidrug Resistant)): 826 nM
growth advantage by cytokines IL-6 and IGF1 ([4]; MM.1S cells): overcomes the growth advantage
combination with bortezomib or perifosine ([4]; myeloma cells): additive benefit in combination
growth inhibition ([4]; treated up to 72 hrs, between 6 uM to 10 μM): more than 80%
cell cycle profile (myeloma cells [5]; MM.1S cells): induces both cell cycle arrests as well as apoptosis
apoptosis by annexin V staining (myeloma cells [5]; similar concentrations (6 uM to 10 μM)): induced to undergo apoptosis
cleavage of procaspases (caspase 8, 9, 3 and PARP) (myeloma cells [6]; 0.5 μM to 10 μM, about 48 hrs): extensively cleaved
phos-AKT level (myeloma cells [6]; MM.1S): not significantly reduced
phos-p53 and GADD45 levels (myeloma cells [6]; MM.1S): upregulaed
cell growth [7]: induced cell growth inhibition
cell killing of CD38 positive population [8]: very significant cell killing
radical formation with superoxide (ESR) [9]: appear to form a radical by reacting with superoxide

CCN(CC)CCCC(C)Nc1ccnc2cc(Cl)ccc12 (stereo not drawn) [Chloroquine, reference compound]
IC50 ([2]; Plasmodium falciparum, D6, read-out: IC50 (nM) vs P. falciparum D6 (Chloroquine Sensitive)): 7.9 nM
IC50 ([3]; Plasmodium falciparum, DD2, read-out: IC50 (nM) vs P. falciparum Dd2 (Multidrug Resistant)): 140 nM

CCN(CC)c1ccc(C(=C2C=C3CCc4ccccc4N(CCCN(C)C)C3=CC2)c2ccc(N(CC)CC)cc2)cc1 [TPM 2]
number of parasite/ml of blood versus control (T. brucei; s.c. 1 mg/mice/day from day of infection): slightly less
survival of infected mice (T. brucei; s.c. 1 mg/mice/day from day of infection, 5,000 parasites/mouse): died at day 4
activity in first experiment (Leishmania amazonensis): have shown activity
growth inhibition (Leishmania amazonensis; 1 mcM, 48 hours): 72%
IC50 (Leishmania amazonensis; [10]): ~600 nM
IC50 (Leishmania amazonensis; [11]): 600 nM

CCN(CC)c1ccc(C(=C2C=CC(C)C=C2)c2ccc(N(CC)CC)cc2)cc1 (stereo not drawn) [TPM 6]
IC50 ([2]; D6; read-out: IC50 (nM) vs P. falciparum D6 (Chloroquine Sensitive)): 61.7 nM
active / inactive in the malaria assay ([2]; summary over D6 and Dd2 strains): active
IC50 ([3]; Dd2; read-out: IC50 (nM) vs P. falciparum Dd2 (Multidrug Resistant)): 48.9 nM
relative activity among compounds tested (Leishmania amazonensis): most active compound
growth inhibition (Leishmania amazonensis; 0.01 mcM, 48 hours): 41%
growth inhibition (Leishmania amazonensis; 0.05 mcM, 48 hours): 59%
growth inhibition (Leishmania amazonensis; 0.1 mcM, 48 hours): 98%
growth inhibition (Leishmania amazonensis; 0.5 mcM, 48 hours): 98%
growth inhibition (Leishmania amazonensis; 1 mcM, 48 hours): 100%
growth inhibition (Leishmania amazonensis; 5 mcM, 48 hours): 100%
IC50 (Leishmania amazonensis; [10]): ~20 nM
IC50 (Leishmania amazonensis; [11]): 20 nM

c1ccc([I+]c2ccccc2)cc1 [DPI, diphenyliodonium]
decrease in ang-2 expression compared to control (ang-2 mRNA): 80%

CCN(CC)c1ccc(C(=C2C=CC3C(C[C@H](N)C(=O)O)=CNC3=C2)c2ccc(N(CC)CC)cc2)cc1 (stereo partly drawn) [TPM 5]
activity in first experiment (Leishmania amazonensis): did not
